From patent publication US20100092456A1, “METHODS OF TREATMENT” (priority 2006, published 2010)
No end group written: not given here.

Experiments:
[1] = tested on: PtdIns(4,5)P2 in HeLa cells; assay: PtdIns(4,5)P2 levels visualised with GFP-PH domain of PLCdelta1 probe in HeLa cells; type: cell-based; details: transient, levels quickly recover
Source text: Changes in intracellular PtdIns(4,5)P2 levels following stimulation with neurokinin A were visualised in real time using a fusion protein of GFP and the PH domain of PLCdelta1 as a probe. GFP PLC delta 1 is a highly specific in vivo probe for PIP2 in cells.
HeLa cells were transiently transfected with an expression plasmid encoding a fusion protein of GFP and the PH domain of PLCdelta1.
HeLa cells were transiently transfected with an expression plasmid encoding a fusion protein of GFP and the pleckstrin homology domain of PLCdelta1. GFP PLC delta1 is a highly specific in vivo probe for PtdIns(4,5)P2 in cells. Results are in FIG. 10.

[2] = biological target: T1, PtdIns(4,5)P—F PH domain complex (Homo sapiens, UniProt P51178); assay: Displacement of PtdIns(4,5)P—F from the PH domain complex by unlabelled lipids; type: binding
T1 construct: GST-tagged PLCδ1 Pleckstrin homology (PH) domain protein expressed and purified in-house in E. Coli; made in house; host or cells: E. coli
T1 sequence (P51178 21-130 limits assumed): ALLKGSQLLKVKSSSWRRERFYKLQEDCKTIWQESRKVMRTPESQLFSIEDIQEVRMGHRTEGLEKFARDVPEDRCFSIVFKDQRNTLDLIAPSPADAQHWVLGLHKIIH
Procedure: FIG. 7. A 10 nM-1 uM PtdIns(4,5)P—F PH domain complex was incubated with increasing concentrations of unlabelled PtdIns(4,5) P2 (circles) and unlabelled PtdIns5P (squares). The unlabelled product disrupts the complex fully at 1 mM, substrate has no effect at 16 mM, (duplicates).
FIG. 20: A PtdIns(4,5)P—F PH domain complex (10 nM/500 nM) was incubated with increasing concentrations of unlabelled PtdIns(4,5) P2 (triangles) and unlabelled PtdIns4P (diamonds). The unlabelled product disrupts the complex fully at 750 nM, substrate has no effect at 5 μM.

MEL cells = assay: MEL cell viability and cell cycle profile; type: cell-based, Murine; details: compound alone
Procedure: Ethanol fixed cells were incubated with prodium iodide (20 μg/ml) and RNAse (10 μg/ml) before cell cycle analysis by flow cytometry. Proteins were analysed by standard western blotting procedures employing the following antibodies: anti-tubulin and anti-flag (both from Sigma), anti-actin (Chemicon International), anti-histone 4 (Upstate Biotechnology), anti-phospho p54, anti-phospho p46, anti-phospho p38, total p54, total p46 and total p38 (all from Cell Signalling Technology) anti-ING2, anti EGFP (Clontech), anti-type II β PIP kinase, anti-GST and anti-myc (both generated in house).
To investigate the sub-nuclear localisation of UV-induced nuclear PtdInsPs, we fractionated nuclei to generate nucleoplasm (containing nuclear membranes and soluble nuclear material) and the chromatin enriched fraction (CEF) (FIG. 1c inset). […] Thus, the PtdInsP pool present in the CEF is a target for regulation in response to cellular stress.

type II β PIP kinase = assay: Type II PIP kinase activity in immunoprecipitates using PtdIns5P as substrate; type: cell-based
Procedure: FIG. 3. A) MEL cells were either untransfected or transfected to express myc-type II b PIP kinase. After 40 hours the cells some of the cells were irradiated with 200 J/m of UV light before reculturing for varying times indicated in the figure. The cells were collected and endogenous type II PIP kinase was immunoprecipitated from whole cell lysates using an anti-pan type II b PIP kinase antibody or an anti-myc antibody. Type II PIP kinase activity in the immunoprecipitates was determined using PtdIns5P as the substrate. The results are calculated from 3 independent experiments.
To test this hypothesis endogenous type II PIP kinases were immunoprecipitated from control-treated and UV-irradiated MEL cells and their activities were measured using PtdIns5P as a substrate. […] As the antibody used to immunoprecipitate recognises all type II PIP kinase isoforms, we transfected MEL cells with myc-tagged type II β PIP kinase and measured its activity in immunoprecipitates in response to UV irradiation. […] UV irradiation is known to regulate both stress-activated protein kinases (SAPKs) and mitogen-activated protein kinases (MAPKs) and therefore we determined if any of these UV induced pathways impinged on type II β PIP kinase activity. […] Therefore we assessed whether activation of the p38 pathway alone could mediate type II β PIP kinase inhibition. […]

[3] = tested on: nuclear PtdIns4P and PtdIns5P in differentiated MEL cells; assay: Mass assay of nuclear PtdIns4P and PtdIns5P in differentiated MEL cells; type: cell-based, Murine; details: NAC 5 mM or BSO 100 μM for 4 hours, H2O2 500 μM for 15 minutes, vs control-treated cells
Procedure: B) Differentiated MEL cells were treated with NAC (5 mM) or BSO (100 μM), each for 4 hours, or H2O2 (500 μM) for 15 minutes prior to the isolation of intact nuclei. A mass assay was used to determine the levels of PtdIns4P and PtdIns5P. The results are expressed as % of control-treated differentiated MEL cells and are calculated from 3 independent experiments.
MEL, HEK 293 and HT1080 cells were maintained in routine culture using 10% FCS in DMEM. When required, differentiated MEL cells were prepared by the addition of 1.5% DMSO to the culture medium for a period of 4 days. MEL cells were transfected using Effectene (Qiagen), HEK 293 cells with calcium phosphate and HT1080 with LT1 (Mirus corporation). The following plasmids were used: pEGFP, pCDNA3 (both from Clontech), pCDNA3-Flag-MKK6+ and pCDNA3-Flag-MKK6-(from Dr. M. Schmidt, The Netherlands Cancer Institute), pSuper (from Dr. R. Agami, The Netherlands Cancer Institute), pCDNA3-EGFP-IpgD/IpgE, pCDNA3-EGFP-PIP kinase typeIIβ, and RNAi for type II β PIP kinase (termed pSuper-IIβRNAi). The targeting sequence for the latter was […]. Irradiation of the cells with 254 nm UV-C light (0-200 J/m) or gamma rays (0-40 Gy, from a Cesium 137 source) was performed using 6-well or 10 cm plastic petri dishes with a depth of medium covering the cells not exceeding 3-4 mm. Thereafter, the cells were returned to normal culture conditions for 30 minutes before subcellular fractionation was started. To determine long terms effects of UV and gamma irradiation the cells were returned to normal culture conditions for up to 48 hours.
MEL cells were washed, twice in ice cold PBS before their fractionation using a detergent-free hypotonic buffer. This method yields a mixed cytosol and membrane fraction and intact nuclei after separation using a sucrose cushion. MEL cell nuclei were fractionated into nucleoplasm and the CEF using modifications of a previously published method. Briefly, intact MEL cell nuclei were resuspended in ice cold hypotonic buffer (3 mM EDTA, 0.2 mM EGTA and 1 mM DTT pH 7.85, with protease inhibitors) followed by forced passage (12 times) through a 25 gauge needle. After centrifugation (1700 g) the supernatant (the nucleoplasm) was saved. The pellet (CEF) was washed twice before resuspending by sonication in 10 mM TrisHCl, 10% sucrose, 10 mM MgCl2 pH 7.4, with protease inhibitors. The protein content of all fractions was determined using the Bradford reagent (BioRad). PtdIns4P and PtdIns5P were measured using in vitro mass assays employing recombinant type I and type II PIP kinases, respectively. The product PtdIns(4,5)P2 was separated by TLC. The amount of radioactivity found in PtdIns(4,5)P2 was proportional to the amount of PtdInsP isomer in the neomycin affinity-purified lipid extract.
However, no studies have determined a role for nuclear phosphoinositides or defined downstream protein targets mediating phosphoinositide-stress activated pathways. To study changes in nuclear phosphoinositides in response to cellular stress, we used Murine erythroleukaemia (MEL) cells as a model system because preparations of nuclei from these cells have been proven to be of high purity. To visualise changes in phosphoinositides, various independent methods were used. The mass level of both PtdIns4P and PtdIns5P were measured using an assay that relies on the differential in vitro specificities of type I and type II PIP kinases. […] Gamma irradiation (10 Gy) led to a small (approximately 20%) decrease in the PtdIns4P level but no detectable change in the level of PtdIns5P in whole nuclei (FIG. 1a). To determine if nuclear PtdInsPs were regulated by oxidative stress we treated differentiated MEL cells with H2O2, BSO (L-buthionine[S,R]-sulphoximine, a glutamyl-cysteine synthetase inhibitor, which increases intracellular reactive oxygen species (ROS)) or NAC. (N-acetyl-cysteine, which increases cellular glutathione levels and cell' capability to deal with ROS). […]

ING2 = assay: Western blot of endogenous ING2 associated with the CEF of MEL cells; type: cell-based, Murine; details: MEL cells; 200 J/m UV; NAC 5 mM 4 hours, wortmannin 200 nM and 5 μM, curcumin 100 μM
Procedure: FIG. 4. A) Exponentially growing MEL cells were irradiated with either 200 J/m of UV light or 10 Gy of gamma radiation. After 30 minutes the CEF was isolated and the subjected to SDS-PAGE followed by transfer of the separated proteins to a nitrocellulose membrane. Western blotting for endogenous ING2 and histone 4 proteins was performed. Representative western blots are shown. B) Exponentially growing MEL cells were incubated in the absence or presence of N-acetyl cysteine (NAC) (5 mM) for 4 hours prior to a control irradiation or exposed to 200 J/m of UV light before the isolation of the CEF. Differentiated MEL cells were incubated in the absence or presence of H2O2 (500 μM) for 15 minutes prior to the isolation of the CEF. Proteins in the CEF were subjected to SDS-PAGE followed by transfer to a nitrocellulose membrane. Western blotting for endogenous ING2 and histone 4 proteins was performed. Representative western blots are shown. C) MEL cells were preincubated with either vehicle, wortmannin (200 nM and 5 μM) or curcumin (100 μM) were irradiated with 200 J/m of UV light. After 30 minutes the CEF was isolated and proteins were subjected to SDS-PAGE followed by transfer to a nitrocellulose membrane. Western blotting for endogenous ING2 and histone 4 proteins was performed. Representative western blots are shown. D) The CEF from transiently transfected MEL cells with either pSuper or pSuper-IIβRNAi was prepared. Proteins in the CEF were subjected to SDS-PAGE followed by transfer to a nitrocellulose membrane. […] Proteins were analysed by standard western blotting procedures employing the following antibodies: anti-tubulin and anti-flag (both from Sigma), anti-actin (Chemicon International), anti-histone 4 (Upstate Biotechnology), anti-phospho p54, anti-phospho p46, anti-phospho p38, total p54, total p46 and total p38 (all from Cell Signalling Technology) anti-ING2, anti EGFP (Clontech), anti-type II β PIP kinase, anti-GST and anti-myc (both generated in house).

neurokinin A (HKTDSFVGLM; ends and bridges not checked; UniProt P20366 98-107, looked up) [growth factor used to stimulate PtdIns(4,5)P2 depletion]
PtdIns(4,5)P2 levels (GFP-PH probe at plasma membrane) after growth factor stimulation [1]: depletion

D-myo-Phosphatidylinositol 4-phosphate [PtdIns4P]
effect on the complex ([2]; at 5 μM, PtdIns(4,5)P—F PH domain complex (10 nM/500 nM) (FIG. 20)): no effect

COC[C@H]1OC(=O)c2coc3c2[C@@]1(C)C1=C(C3=O)[C@@H]2CCC(=O)[C@@]2(C)C[C@H]1OC(C)=O [wortmannin]
effect on the cell cycle profile (MEL cells; MEL cells): no effect
effect on MEL cell viability (MEL cells): no effect

COc1ccc(C[C@H]2NC[C@H](O)[C@H]2OC(C)=O)cc1 [anisomycin]
inhibition of type II β PIP kinase activity (type II β PIP kinase; treatment of cells): approximately 50%

PtdIns5P
effect on the complex ([2]; 10 nM-1 uM PtdIns(4,5)P—F PH domain complex (FIG. 7)): no effect

C[S+]([O-])c1ccc(-c2nc(-c3ccncc3)c(-c3ccc(F)cc3)[nH]2)cc1 (centres unmarked) [SB 203580]
UV light-induced inhibition of type II β PIP kinase activity (type II β PIP kinase; pre-treatment of MEL cells): blocked

CCCCS(=N)(=O)CCC(N)C(=O)O [BSO, L-buthionine[S,R]-sulphoximine]
level of nuclear PtdIns4P [3]: increased
level of nuclear PtdIns5P [3]: increased

phosphatidylinositol 4,5-bisphosphate [PtdIns(4,5) P2]
concentration at which unlabelled lipid disrupts the complex fully ([2]; 10 nM-1 uM PtdIns(4,5)P—F PH domain complex, duplicates (FIG. 7)): 1 mM
concentration at which unlabelled lipid disrupts the complex fully ([2]; PtdIns(4,5)P—F PH domain complex (10 nM/500 nM) (FIG. 20)): 0.00075 mM

CC(=O)N[C@@H](CS)C(=O)O [NAC, N-acetyl-cysteine]
level of nuclear PtdIns4P [3]: lowered
level of nuclear PtdIns5P [3]: lowered
UV-induced translocation of endogenous ING2 to the CEF (ING2): did not block
